Where “and” joins values, the source holds several entries; their conditions need not be identical. Identical values can stand only once. Inconclusive results and toxic doses are left out.
Tested on: CD2F1 mice, L1210 leukemia ip, survival T/C
Assay: NCI In Vivo Anticancer Drug Screen. Data for tumor model L1210 Leukemia (intraperitoneal) in CD2F1 (CDF1) mice
Conditions: higher = longer survival
Summary of the method: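 In this screen, transplantable tumors were grown in mice given either the compound or its vehicle. Results were expressed as the treated measurement relative to the control measurement.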

[1] = endpoint: mean survival time, dose: 100.0 mg/kg/injection, schedule: Q01DX009 (ip), vehicle: saline with Tween-80
[2] = endpoint: mean survival time, dose: 200.0 mg/kg/injection, schedule: Q01DX009 (ip), vehicle: saline with Tween-80
[3] = endpoint: mean survival time, dose: 400.0 mg/kg/injection, schedule: Q01DX009 (ip), vehicle: saline with Tween-80
[4] = endpoint: mean survival time, dose: 25.0 mg/kg/injection, schedule: Q01DX009 (ip), vehicle: saline with Tween-80
[5] = endpoint: mean survival time, dose: 50.0 mg/kg/injection, schedule: Q01DX009 (ip), vehicle: saline with Tween-80
[6] = endpoint: mean survival time, dose: 50.0 mg/kg/injection, schedule: Q04DX003 (ip), vehicle: saline with Tween-80
[7] = endpoint: mean survival time, dose: 100.0 mg/kg/injection, schedule: Q01DX001 (ip), vehicle: saline
[8] = endpoint: mean survival time, dose: 100.0 mg/kg/injection, schedule: Q04DX003 (ip), vehicle: saline with Tween-80
[9] = endpoint: mean survival time, dose: 200.0 mg/kg/injection, schedule: Q04DX003 (ip), vehicle: saline with Tween-80
[10] = endpoint: mean survival time, dose: 400.0 mg/kg/injection, schedule: Q04DX003 (ip), vehicle: saline with Tween-80
[11] = endpoint: mean survival time, dose: 50.0 mg/kg/injection, schedule: Q01DX009 (ip), vehicle: Klucel (hydroxypropylcellulose) (HPC)
[12] = endpoint: mean survival time, dose: 100.0 mg/kg/injection, schedule: Q01DX009 (ip), vehicle: Klucel (hydroxypropylcellulose) (HPC)

C=C1C(=O)OC2/C=C(\CO)CC/C=C(\CO)CC(OC(=O)C(C)C)C12 (configuration not stated)
T/C (endpoint: mean survival time, dose: 3.75 mg/kg/injection, schedule: Q01DX009 (ip), vehicle: Klucel (hydroxypropylcellulose) (HPC)): 100 % of control
T/C (endpoint: mean survival time, dose: 7.5 mg/kg/injection, schedule: Q01DX009 (ip), vehicle: Klucel (hydroxypropylcellulose) (HPC)): 88 % of control
T/C (endpoint: mean survival time, dose: 15.0 mg/kg/injection, schedule: Q01DX009 (ip), vehicle: Klucel (hydroxypropylcellulose) (HPC)): 97 % of control
T/C (endpoint: mean survival time, dose: 30.0 mg/kg/injection, schedule: Q01DX009 (ip), vehicle: Klucel (hydroxypropylcellulose) (HPC)): 105 % of control

Cc1ccc(N=C(N)NC#N)cc1C
T/C [1]: 95 % of control
T/C [2]: 97 % of control

O=C(CCl)NC(=O)CCl
T/C (endpoint: mean survival time, dose: 25.0 mg/kg/injection, schedule: Q01DX009 (ip), vehicle: saline sonified): 90 % of control
T/C (endpoint: mean survival time, dose: 50.0 mg/kg/injection, schedule: Q01DX009 (ip), vehicle: saline sonified): 104 % of control
T/C (endpoint: mean survival time, dose: 100.0 mg/kg/injection, schedule: Q01DX009 (ip), vehicle: saline sonified): 90 % of control

O=C(O)CCC(NC(=O)OCc1ccccc1)C(=O)O (configuration not stated)
T/C [1]: 98 % of control
T/C [2]: 94 % of control
T/C [3]: 96 % of control

NC(CSC(c1ccccc1)(c1ccccc1)c1ccc(F)cc1)C(=O)O (configuration not stated)
T/C (endpoint: mean survival time, dose: 25.0 mg/kg/injection, schedule: Q01DX009 (ip), vehicle: saline): 181 % of control
T/C (endpoint: mean survival time, dose: 50.0 mg/kg/injection, schedule: Q01DX009 (ip), vehicle: saline): 192 % of control

CCCCCCCCCCCCN(C)C
T/C [4]: 92 % of control
T/C (endpoint: mean survival time, dose: 25.0 mg/kg/injection, schedule: Q04DX003 (ip), vehicle: saline with Tween-80): 97 % of control
T/C (endpoint: mean survival time, dose: 50.0 mg/kg/injection, schedule: Q01DX001 (ip), vehicle: saline): 96 % of control
T/C [5]: 92 % of control
T/C [6]: 100 % of control
T/C [7]: 100 % of control
T/C [8]: 102 % of control

O=C(c1ccccc1)N(C(=O)c1ccccc1)c1cccc(N(C(=O)c2ccccc2)C(=O)c2ccccc2)n1
T/C (endpoint: mean survival time, dose: 50.0 mg/kg/injection, schedule: Q04DX002 (ip), vehicle: saline with Tween-80): 101 % of control
T/C (endpoint: mean survival time, dose: 100.0 mg/kg/injection, schedule: Q04DX002 (ip), vehicle: saline with Tween-80): 97 % of control
T/C (endpoint: mean survival time, dose: 200.0 mg/kg/injection, schedule: Q04DX002 (ip), vehicle: saline with Tween-80): 93 % of control

COc1ccc([N+](=O)[O-])cc1Br
T/C [8]: 100 % of control
T/C [9]: 102 % of control
T/C [10]: 102 % of control

COc1cc2c(cc1OC)C1CC(=O)CCN1CC2 (configuration not stated)
T/C (endpoint: mean survival time, dose: 12.5 mg/kg/injection, schedule: Q01DX009 (ip), vehicle: Klucel (hydroxypropylcellulose) (HPC)): 97 % of control and 104 % of control
T/C (endpoint: mean survival time, dose: 25.0 mg/kg/injection, schedule: Q01DX009 (ip), vehicle: Klucel (hydroxypropylcellulose) (HPC)): 97 % of control and 98 % of control
T/C [11]: 95 % of control and 98 % of control
T/C [12]: 97 % of control and 100 % of control
T/C (endpoint: median survival time, dose: 12.5 mg/kg/injection, schedule: Q01DX009 (ip), vehicle: Klucel (hydroxypropylcellulose) (HPC)): 97 % of control
T/C (endpoint: median survival time, dose: 25.0 mg/kg/injection, schedule: Q01DX009 (ip), vehicle: Klucel (hydroxypropylcellulose) (HPC)): 94 % of control
T/C (endpoint: median survival time, dose: 50.0 mg/kg/injection, schedule: Q01DX009 (ip), vehicle: Klucel (hydroxypropylcellulose) (HPC)): 92 % of control
T/C (endpoint: median survival time, dose: 100.0 mg/kg/injection, schedule: Q01DX009 (ip), vehicle: Klucel (hydroxypropylcellulose) (HPC)): 101 % of control

CC1(C(=O)O)CCCC1C(CCC(=O)O)C(=O)O (configuration not stated)
T/C (endpoint: mean survival time, dose: 100.0 mg/kg/injection, schedule: Q04DX003 (ip), vehicle: saline): 98 % of control
T/C (endpoint: mean survival time, dose: 200.0 mg/kg/injection, schedule: Q04DX003 (ip), vehicle: saline): 96 % of control
T/C (endpoint: mean survival time, dose: 400.0 mg/kg/injection, schedule: Q04DX003 (ip), vehicle: saline): 96 % of control

CC(C)CCNCC(C)(C)OC(=O)c1ccc([N+](=O)[O-])cc1
T/C (endpoint: mean survival time, dose: 75.0 mg/kg/injection, schedule: Q01DX001 (ip), vehicle: saline): 97 % of control
T/C (endpoint: mean survival time, dose: 150.0 mg/kg/injection, schedule: Q01DX001 (ip), vehicle: saline): 101 % of control
T/C (endpoint: mean survival time, dose: 300.0 mg/kg/injection, schedule: Q01DX001 (ip), vehicle: saline): 102 % of control

CCOC(=O)c1c(C)oc2cc3c(C(=O)OCC)c(C)oc3cc12
T/C (endpoint: mean survival time, dose: 100.0 mg/kg/injection, schedule: Q01DX001 (ip), vehicle: Klucel (hydroxypropylcellulose) (HPC)): 90 % of control
T/C (endpoint: mean survival time, dose: 200.0 mg/kg/injection, schedule: Q01DX001 (ip), vehicle: Klucel (hydroxypropylcellulose) (HPC)): 95 % of control
T/C (endpoint: mean survival time, dose: 400.0 mg/kg/injection, schedule: Q01DX001 (ip), vehicle: Klucel (hydroxypropylcellulose) (HPC)): 93 % of control

Cc1cc(=O)n(C)c2ccccc12
T/C [6]: 95 % of control
T/C [8]: 103 % of control
T/C [9]: 97 % of control

CC(C)[N-]C(C)C.CC(C)[N-]C(C)C.[Cl][Pt+2][Cl]
T/C (endpoint: mean survival time, dose: 10.0 mg/kg/injection, schedule: Q04DX003 (ip), vehicle: saline with Tween-80): 102 % of control
T/C (endpoint: mean survival time, dose: 20.0 mg/kg/injection, schedule: Q04DX003 (ip), vehicle: saline with Tween-80): 97 % of control
T/C (endpoint: mean survival time, dose: 40.0 mg/kg/injection, schedule: Q04DX003 (ip), vehicle: saline with Tween-80): 105 % of control
T/C (endpoint: mean survival time, dose: 80.0 mg/kg/injection, schedule: Q04DX003 (ip), vehicle: saline with Tween-80): 97 % of control
T/C (endpoint: mean survival time, dose: 160.0 mg/kg/injection, schedule: Q04DX003 (ip), vehicle: saline with Tween-80): 97 % of control

C[C@]12CC[C@H](O)C[C@@H]1CC[C@@H]1[C@@H]2C(=O)C[C@@]2(C)[C@H]1CC[C@]2(O)C(=O)CBr
T/C (endpoint: mean survival time, dose: 100.0 mg/kg/injection, schedule: Q01DX009 (sc), vehicle: steriod suspending solution): 97 % of control
T/C (endpoint: mean survival time, dose: 100.0 mg/kg/injection, schedule: Q04DX003 (sc), vehicle: steriod suspending solution): 97 % of control
T/C (endpoint: mean survival time, dose: 200.0 mg/kg/injection, schedule: Q01DX009 (sc), vehicle: steriod suspending solution): 94 % of control
T/C (endpoint: mean survival time, dose: 200.0 mg/kg/injection, schedule: Q04DX003 (sc), vehicle: steriod suspending solution): 95 % of control
T/C (endpoint: mean survival time, dose: 400.0 mg/kg/injection, schedule: Q01DX009 (sc), vehicle: steriod suspending solution): 90 % of control
T/C (endpoint: mean survival time, dose: 400.0 mg/kg/injection, schedule: Q04DX003 (sc), vehicle: steriod suspending solution): 95 % of control

Cc1cc(N/N=c2/c3ccccc3n(O)c3c2ccc2ccccc23)ccc1O
T/C [8]: 104 % of control
T/C [9]: 104 % of control
T/C [10]: 104 % of control

O=c1cc(Cl)c(=O)[nH][nH]1
T/C (endpoint: mean survival time, dose: 100.0 mg/kg/injection, schedule: Q01DX001 (ip), vehicle: other): 104 % of control
T/C [1]: 92 % of control
T/C [8]: 94 % of control
T/C (endpoint: mean survival time, dose: 200.0 mg/kg/injection, schedule: Q01DX001 (ip), vehicle: other): 97 % of control
T/C [2]: 94 % of control
T/C [9]: 94 % of control
T/C (endpoint: mean survival time, dose: 400.0 mg/kg/injection, schedule: Q01DX001 (ip), vehicle: other): 98 % of control
T/C [3]: 97 % of control
T/C [10]: 96 % of control

CS(=O)(=O)c1ccccn1
T/C (endpoint: mean survival time, dose: 100.0 mg/kg/injection, schedule: Q01DX001 (ip), vehicle: saline sonified): 100 % of control
T/C (endpoint: mean survival time, dose: 200.0 mg/kg/injection, schedule: Q01DX001 (ip), vehicle: saline sonified): 97 % of control
T/C (endpoint: mean survival time, dose: 400.0 mg/kg/injection, schedule: Q01DX001 (ip), vehicle: saline sonified): 100 % of control

Cc1cc(N(C)C)ccc1N=Nc1cc[n+]([O-])c(C)c1
T/C [4]: 103 % of control
T/C [5]: 108 % of control
T/C [1]: 103 % of control
T/C [8]: 104 % of control
T/C [9]: 102 % of control
T/C [10]: 104 % of control

C=C1C(=O)OC2/C=C(\C)CC/C=C(/C=O)C(OC(=O)C(C)C)C(O)C12 (configuration not stated)
T/C (endpoint: mean survival time, dose: 1.0 mg/kg/injection, schedule: Q01DX009 (ip), vehicle: saline with Tween-80): 113 % of control and 103 % of control
T/C (endpoint: mean survival time, dose: 2.0 mg/kg/injection, schedule: Q01DX009 (ip), vehicle: saline with Tween-80): 103 % of control and 105 % of control and 107 % of control
T/C (endpoint: mean survival time, dose: 4.0 mg/kg/injection, schedule: Q01DX009 (ip), vehicle: saline with Tween-80): 97 % of control and 100 % of control and 107 % of control
T/C (endpoint: mean survival time, dose: 8.0 mg/kg/injection, schedule: Q01DX009 (ip), vehicle: saline with Tween-80): 102 % of control and 109 % of control and 112 % of control
T/C (endpoint: mean survival time, dose: 16.0 mg/kg/injection, schedule: Q01DX009 (ip), vehicle: saline with Tween-80): 92 % of control and 96 % of control

Nc1nc(N)c2cc(CNc3ccc(C(=O)NC(CC(=O)O)CC(=O)O)cc3)cnc2n1
T/C [11]: 94 % of control
T/C [12]: 98 % of control

CC1(CO)CCCC2(C)C3=C(CCCC3)CCC12 (configuration not stated)
T/C [6]: 97 % of control
T/C [8]: 101 % of control
T/C [9]: 97 % of control

Cc1cc(C)c(CC(C)C)c(C)c1
T/C [7]: 98 % of control
T/C (endpoint: mean survival time, dose: 200.0 mg/kg/injection, schedule: Q01DX001 (ip), vehicle: saline): 98 % of control
T/C (endpoint: mean survival time, dose: 400.0 mg/kg/injection, schedule: Q01DX001 (ip), vehicle: saline): 98 % of control

From PubChem BioAssay AID256 (DTP/NCI, 2004)
